Reference: article PMC11211886 (Frontiers in Pharmacology, 2024)
Several values for one entry are separate records, joined by “and”; a condition that tells them apart may be missing. Equal values may be shown once.

Legend:
Format in all cases: in vitro ADME
[1] = Plasma protein binding (RED), human plasma; settings: mouse, rat, dog, monkey, human, plasma, pH 7.4; all species, all cases (data not shown); read-out: post-dialysis recovery
Experimental: (§1) The plate containing plasma and buffer was equilibrated for 6 h in a 37°C water shaking bath. After incubation, aliquots of buffer and plasma (20 µL) on both sides were collected and precipitated using organic solvents. […] The post-dialysis recovery of amdizalisib was also measured.

[2] = test system: plasma proteins; test: Plasma protein binding (RED), human plasma
Experimental: as §1

[3] = biological target: T1, CYP2C9 (Homo sapiens, UniProt P11712); test: Reversible CYP inhibition in HLM, CYP2C9 (diclofenac); settings: for enzyme activity remaining: CYP2C9, HLM
T1 construct: tissue Life Technologies (Durham, NC, USA); host or cells: human liver microsomes
T1 sequence (P11712 whole entry): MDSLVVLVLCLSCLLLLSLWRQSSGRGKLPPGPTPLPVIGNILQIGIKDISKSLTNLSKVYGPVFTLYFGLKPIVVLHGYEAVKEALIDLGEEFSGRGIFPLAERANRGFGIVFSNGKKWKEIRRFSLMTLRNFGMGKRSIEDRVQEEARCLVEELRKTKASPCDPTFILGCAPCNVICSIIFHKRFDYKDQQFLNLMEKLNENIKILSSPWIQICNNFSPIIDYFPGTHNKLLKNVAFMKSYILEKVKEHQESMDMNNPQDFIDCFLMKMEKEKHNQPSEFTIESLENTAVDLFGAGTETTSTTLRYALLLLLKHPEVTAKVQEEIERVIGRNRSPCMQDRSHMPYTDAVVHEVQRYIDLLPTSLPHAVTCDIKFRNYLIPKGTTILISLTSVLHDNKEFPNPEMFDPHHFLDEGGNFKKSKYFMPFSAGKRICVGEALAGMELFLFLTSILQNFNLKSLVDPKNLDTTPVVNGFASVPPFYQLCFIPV
Experimental: The markers used to determine the activities of CYP isoforms were phenacetin O-deethylation for CYP1A2 (probe substrate: 50 µM phenacetin), bupropion hydroxylation for CYP2B6 (probe substrate: 70 µM bupropion), paclitaxel 6α-hydroxylation for CYP2C8 (probe substrate: 10 µM paclitaxel), diclofenac 4′-hydroxylation for CYP2C9 (probe substrate: 5 µM diclofenac), S-(+)-mephenytoin 4′-hydroxylation for CYP2C19 (probe substrate: 20 µM S-(+)-mephenytoin), dextromethorphan O-demethylation for CYP2D6 (probe substrate: 6 µM dextromethorphan), chlorzoxazone 6′-hydroxylation for CYP2E1 (probe substrate: 70 µM chlorzoxazone), and testosterone 6β-hydroxylation and midazolam 1′-hydroxylation for CYP3A4/5 (probe substrate: 45 µM testosterone and 5 µM midazolam). […] Alpha-naphthoflavone (0.04 µM), 2-phenyl-2-(1-piperidinyl)propane (5 µM), quercetin (1 µM), sulfaphenazole (0.5 µM), ticlopidine (4 µM), quinidine (0.2 µM), diethyldithiocarbamate (20 µM), and ketoconazole (0.05 µM) were used as positive inhibitors of CYP1A2, 2B6, 2C8, 2C9, 2C19, 2D6, 2E1, and 3A4, respectively. The vehicle control was prepared in the same composition as inhibitor solutions but free of inhibitors. The concentrations of probe substrates were close to Km values that were determined in-house and within the range recommended by the FDA ([Huang et al., 2007]). Reaction mixtures were incubated at 37°C for 5, 20, or 30 min, depending on the probe substrates of CYP isoforms. The reactions were terminated by adding cold acetonitrile containing IS, and the terminated incubation mixtures were centrifuged at 3,000 g for 10 min before LC-MS/MS analysis.

[4] = test system: CYP3A4; test: CYP induction in human hepatocytes, CYP3A4 enzyme activity
Experimental: […] […] […] Enzyme activity for each CYP isoform was reported as a fold change over vehicle control and the percent of positive control (detailed calculation in Supplementary 1.1). Hepatocytes were harvested with a lysis buffer from RNeasy 96 Kit (Qiagen Inc., Germantown, MD, USA) to isolate RNA, which was analyzed by real-time quantitative polymerase chain reaction (RT-PCR). […] Emax (the maximal observed induction) and EC50 (the concentration that supports half-maximal induction) were estimated by non-linear regression of fold increase in CYP mRNA expression versus concentration plots.
The fold of vehicle control and the percent of positive control were calculated with the formulas below:
Fold of vehicle control = CYPs activity of test compound (or positive control) treated sample / CYPs activity of vehicle control treated sample
% of positive control = [(fold change in treated sample)-1] / [(fold change in positive control)-1] × 100

Compound: C[C@H](Nc1ncnc(N)c1C#N)c1cc2ncc(Cl)n2nc1-c1ccccc1 [Amdizalisib]
- recovery at 6 h [1]: > 90%
- Binding fraction to plasma proteins, Human ([2]; 0.1 µM): 94.0 ± 0.86%
- Binding fraction to plasma proteins, Human ([2]; 1 µM): 92.8 ± 0.54%
- Binding fraction to plasma proteins, Human ([2]; 20 µM): 92.4 ± 0.15%
- stability in plasma post-incubation ([2]; all species, 37°C 6 h (data not shown)): > 90%
- fraction unbound at 6 h ([2]; plasma, pH 7.4, all species (mouse, rat, dog, monkey, human), 0.1–20 μM): ~0.1
- enzyme activity remaining ([3]; 0.08 μM): 98.3% and 99.7%
- enzyme activity remaining ([3]; 0.4 μM): 94.2% and 95.6%
- enzyme activity remaining ([3]; 2 μM): 82.6%
- enzyme activity remaining ([3]; 10 μM): 53.7% and 52.8%
- enzyme activity remaining ([3]; 50 μM): 17.2% and 16.0%
- IC50 ([3]; HLM, reversible, without pre-incubation): 10.7 µM
- Enzyme activity Percent of PC (%) ([4]; CYP3A4, donor seven, 1 µM): 4.50%
- Enzyme activity Percent of PC (%) ([4]; CYP3A4, donor seven, 3 µM): 4.60%
- Enzyme activity Percent of PC (%) ([4]; CYP3A4, donor seven, 10 µM): 19.8%
- Enzyme activity Percent of PC (%) ([4]; CYP3A4, donor seven, 20 µM): 5.20%
- Enzyme activity Percent of PC (%) ([4]; CYP3A4, donor seven, 30 µM): 4.60%
- Enzyme activity Percent of PC (%) ([4]; CYP3A4, donor six, 1 µM): 0.50%
- Enzyme activity Percent of PC (%) ([4]; CYP3A4, donor six, 3 µM): 3.60%
- Enzyme activity Percent of PC (%) ([4]; CYP3A4, donor six, 10 µM): 19.8%
- Enzyme activity Percent of PC (%) ([4]; CYP3A4, donor six, 20 µM): 28.9%
- Enzyme activity Percent of PC (%) ([4]; CYP3A4, donor six, 30 µM): 17.7%
- Enzyme activity Percent of PC (%) ([4]; CYP3A4, donor two, 1 µM): 0.10%
- Enzyme activity Percent of PC (%) ([4]; CYP3A4, donor two, 3 µM): 0.40%
- Enzyme activity Percent of PC (%) ([4]; CYP3A4, donor two, 10 µM): 4.40%
- Enzyme activity Percent of PC (%) ([4]; CYP3A4, donor two, 20 µM): 1.30%
- Enzyme activity Percent of PC (%) ([4]; CYP3A4, donor two, 30 µM): 1.40%
- induction of CYP3A4 enzyme activity ([4]; up to 30.0 µM, all three donors): not considered an inducer
